Some test systems named below: ACHN; CAKI-1; HCT-116; HCT-15; HL-60; MOLT-4; NCI-H460; NCI-H522; OVCAR-5; RPMI-8226; SF-268; SK-MEL-5; SN12C; TK-10; UACC-257; UACC-62; IGROV-1.
What all share (test): growth of human tumour cells (NCI), 48 h

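Cultured in 96-well plates, cells were exposed to test compound for 48 hours across five concentrations. GI50: concentration for 50% inhibition of growth.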 Calls of active or inactive are those of the source. No stated cut-off is given here; in the data, active = GI50 up to about 1.1 µM and inactive = higher.

`O=C(O)c1ccc2c(c1)C(=O)N(c1ccc(S(=O)(=O)c3ccc(N4C(=O)c5ccc(C(=O)O)cc5C4=O)cc3)cc1)C2=O`: the GI50 is > 100 µM (inactive) in the test with ACHN; > 100 µM (inactive) with CAKI-1; > 100 µM (inactive) in the test with HCT-116; more than 100 µM in the test with HCT-15; > 100 µM (inactive) with HL-60; > 100 µM (inactive) in the test on MOLT-4. Further, the GI50 in the test with NCI-H460, in the test on NCI-H522, in the test on OVCAR-5, in the test with RPMI-8226, in the test with SF-268 and in the test on SK-MEL-5 was > 100 µM (inactive) throughout. The GI50 in the test with SN12C, in the test with TK-10, with UACC-257 and in the test with UACC-62 was > 100 µM (inactive) throughout.

For the molecule `OC12c3ccccc3C1(N1CCOCC1)CCCCC21OCCCO1` (stereo unspecified), the GI50 in the test with ACHN was > 100 µM (inactive); in the test on CAKI-1, > 100 µM (inactive); in the test with HCT-116, > 100 µM (inactive); in the test on HCT-15, more than 100 µM; in the test on HL-60, > 100 µM (inactive); in the test with IGROV-1, > 100 µM (inactive). The GI50 in the test on MOLT-4, with NCI-H460, with NCI-H522, in the test on OVCAR-5, with RPMI-8226 and in the test with SF-268 was > 100 µM (inactive) each time. The GI50 with SK-MEL-5, in the test on SN12C, in the test on TK-10, in the test with UACC-257 and in the test on UACC-62 was > 100 µM (inactive) throughout.

In the case of `CC(=O)OCC1OC(n2cccnc2=O)C(OC(C)=O)C1OC(C)=O` (stereo unspecified), the GI50 was > 100 µM (inactive) in the test on ACHN; > 100 µM (inactive) in the test with CAKI-1; > 100 µM (inactive) in the test on HCT-116; more than 100 µM in the test on HCT-15; > 100 µM (inactive) with HL-60; > 100 µM (inactive) in the test on MOLT-4. Moreover, the GI50 with NCI-H460, in the test with NCI-H522, with OVCAR-5, in the test on RPMI-8226, in the test with SF-268 and with SK-MEL-5 was > 100 µM (inactive) each time. Further, the GI50 with SN12C, in the test with TK-10, in the test with UACC-257 and with UACC-62 was > 100 µM (inactive) each time.

With `Cc1cccc(O)c(=O)c1`, the GI50 in the test with ACHN was 31.7 µM (inactive); in the test with CAKI-1, 63.1 µM (inactive); in the test on HCT-116 it was 11.9 µM (inactive); with HCT-15, 8.3 µM; in the test on HL-60, 3.44 µM (inactive); in the test on IGROV-1, 37.4 µM (inactive). Besides, the GI50 was 6.38 µM (inactive) with MOLT-4; 31.7 µM (inactive) in the test with NCI-H460; 6.79 µM (inactive) in the test with NCI-H522; 47.6 µM (inactive) in the test on OVCAR-5; 7.6 µM (inactive) in the test on RPMI-8226; 21.2 µM (inactive) in the test with SF-268. Besides, the GI50 in the test with SK-MEL-5 was 28.1 µM (inactive); in the test on SN12C it was 37.8 µM (inactive); with TK-10 it was 29.2 µM (inactive); with UACC-257 it was 28.3 µM (inactive); in the test on UACC-62, 11.4 µM (inactive).

As for `CS(=O)(=O)NNS(=O)(=O)c1ccc(Br)cc1`, the GI50 in the test with ACHN was > 100 µM (inactive); in the test with CAKI-1 it was > 100 µM (inactive); with HCT-116, > 100 µM (inactive); with HCT-15 it was more than 100 µM; with HL-60, > 100 µM (inactive); with IGROV-1, > 100 µM (inactive). Moreover, the GI50 with NCI-H460, in the test on NCI-H522, in the test on OVCAR-5, with RPMI-8226, in the test on SF-268 and in the test on SK-MEL-5 was > 100 µM (inactive) each time. Further, the GI50 in the test on TK-10, in the test on UACC-257 and in the test with UACC-62 was > 100 µM (inactive) throughout.

Source of the values: ChEMBL document CHEMBL1201862, “PubChem BioAssay data set” (2004).
